A short description of this data set: Stability of aqueous solution on standing under ambient conditions (loss of inhibitory activity). The note with it: 1 mg per ml, pH of about 8, standing for as little as 30 minutes. The class given is physicochemical.

Molecules are shown by their SMILES.

`C[C@H](CS)C(=O)N1CCC[C@H]1C(=O)O` [SQ14225, D-3-mercapto-2-methylpropanoyl-L-proline]: the “activity of fresh aqueous solution upon standing” value is reported as “substantially less active”.

The values above are taken from EP0038117A1, “Methods for preparing anti-hypertensive agents” (UNIVERSITY OF MIAMI, priority 1980, dated 1981).
